Experimental data: publication PMC6563076 (2019)

Legend:
[1] = test system: F10T (DNA, hairpin, hexaethylene glycol (HEG) linker between 10 and 11) TATAGCTATATATAGCTATA; assay: FRET melting; settings: 10 mM KCl, 90 mM LiCl; 1 μM ligand, 200 nM DNA, 10 mM Li cacodylate; ΔT1/2 used as ΔTm
[2] = test system: F21T (DNA, G4) GGGTTAGGGTTAGGGTTAGGG; assay: FRET melting; settings: 1 μM ligand, 200 nM DNA, 10 mM Li cacodylate, ΔT1/2 used as ΔTm
[3] = test system: FmycT (DNA, G4) TTGAGGGTGGGTAGGGTGGGTAA; assay: FRET melting; settings: 1 mM KCl, 99 mM LiCl; 1 μM ligand, 200 nM DNA, 10 mM Li cacodylate; ΔT1/2 used as ΔTm
[4] = test system: telo23 (DNA, G4) TAGGGTTAGGGTTAGGGTTAGGG; assay: 1H NMR; settings: Na+ (25 mM sodium phosphate, 70 mM NaCl); pH 7.0, 298 K, 175 µM DNA, 2 equivalents ligand; imino signals lost
[5] = test system: telo23 (DNA, G4) TAGGGTTAGGGTTAGGGTTAGGG; assay: CD titration; settings: pH 7.4, 20 °C, 4.22 µM DNA
[6] = test system: telo22 (DNA, G4) AGGGTTAGGGTTAGGGTTAGGG; assay: CD titration; settings: Na+ (100 mM sodium phosphate); pH 7.4; conformational change similar to telo23

Structure (SMILES) | ΔTm [1] | ΔTm ([2]; 10 mM KCl, 90 mM LiCl) | ΔTm ([2]; 100 mM NaCl) | ΔTm [3] | binding [4] | binding ([5]; K+ (100 mM potassium phosphate), no conformational change, ICD seen) | binding ([5]; Na+ (100 mM sodium phosphate), ligand unfolds the G4) | binding [6]
C[n+]1ccc(-c2ccc3c(c2)/C(=C2/CCc4ccc(-c5cc[n+](C)cc5)cc42)CC3)cc1 | 0.1 ± 0.1 °C | 9.7 ± 0.5 °C | 5.4 ± 1.0 °C | 5.1 ± 1.4 °C | – | – | – | –
C[n+]1ccc(-c2ccc3c(c2)/C(=C2\CCc4ccc(-c5cc[n+](C)cc5)cc42)CC3)cc1 | 0.8±0.2 °C | 21.4±0.3 °C | 11.8±0.6 °C | 15.8±0.8 °C | yes | yes | yes | yes
